Laboratory results from US7368576B2, “Dipeptidyl peptidase IV inhibitors and their uses as anti-cancer agents” (Probiodrug AG, priority 2001, dated 2008).

Assays:
[1] = target: T1, Prolidase from porcine kidney (Sus scrofa, UniProt A0A5G2QQV1); test: Cross reacting enzymes: prolidase; assay type: biochemical; conditions: Ile-Pro-OH 0.5 mM, pH 7.6; read-out: IC50 against prolidase
T1 construct: Prolidase from porcine kidney; purchased ICN Biomedicals, Eschwege, Germany; host or cells: porcine kidney
T1 sequence (A0A5G2QQV1 1-463): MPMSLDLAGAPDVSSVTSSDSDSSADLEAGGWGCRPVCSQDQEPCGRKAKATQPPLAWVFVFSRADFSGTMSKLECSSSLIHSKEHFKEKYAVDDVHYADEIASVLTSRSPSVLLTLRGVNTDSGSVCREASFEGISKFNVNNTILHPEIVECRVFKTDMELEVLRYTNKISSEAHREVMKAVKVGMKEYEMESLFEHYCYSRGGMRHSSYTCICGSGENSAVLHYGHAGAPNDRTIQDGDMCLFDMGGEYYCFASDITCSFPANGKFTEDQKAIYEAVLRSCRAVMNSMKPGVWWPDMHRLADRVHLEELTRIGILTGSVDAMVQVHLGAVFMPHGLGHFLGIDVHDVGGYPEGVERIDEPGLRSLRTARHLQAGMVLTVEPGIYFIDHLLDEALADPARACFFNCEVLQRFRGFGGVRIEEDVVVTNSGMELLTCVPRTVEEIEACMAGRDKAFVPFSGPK
Procedure: Prolidase from porcine kidney (ICN Biomedicals, Eschwege, Germany) was solved (1 mg/ml) in assay buffer (20 mM NH4(CH3COO)2, 3 mM MnCl2, pH 7.6). In order to get a fully active enzyme the solution was incubated for 60 min at room temperature.
450 μl glutaminyl pyrrolidine or glutaminyl thiazolidine in an concentration range of 5*10^−3 M-5*10^−7 M were admixed with 500 μl buffer solution (20 mM […], pH 7.6) and 250 μl Ile-Pro-OH (0.5 mM in the assay mixture). The assay mixture was pre-incubated at 30° C. for 5 min. After pre-incubation, 75 μl Prolidase (1:10 diluted in assay buffer) were added and measurement was performed at 30° C. and λ=220 nm for 20 min using a UV/Vis photometer, UV1 (Thermo Spectronic, Cambridge, UK).
The IC 50-values were calculated using Graphit 4.0.15 (Erithacus Software, Ltd., UK).

[2] = target: T2, porcine dipeptidyl peptidase II (DP II) (Sus scrofa, UniProt A0A5G2QK18); test: Inhibition of DPIV-like enzymes, dipeptidyl peptidase II; assay type: biochemical; conditions: lysylalanylaminomethylcoumarine, 30° C.; read-out: Ki against porcine dipeptidyl peptidase II
T2 construct: The enzyme used was purified from porcine kidney; from tissue; host or cells: porcine kidney
Procedure: DP II (3.4.14.2) releases N-terminal dipeptides from oligopeptides if the N-terminus is not protonated (McDonald, J. K., Ellis, S. & Reilly, T. J., 1966, J. Biol. Chem., 241, 1494-1501). Pro and Ala in Pi-position are preferred residues. The enzyme activity is described as DPIV-like activity, but DP II has an acidic pH-optimum. The enzyme used was purified from porcine kidney.
100 μl glutaminyl pyrrolidine or glutaminyl thiazolidine in an concentration range of 1*10^−4 M-5*10^−8 M were admixed with 100 μl μl buffer solution (40 mM HEPES, pH7.6, 0.015% Brij, 1 mM DTT), 50 μl lysylalanylaminomethylcoumarine solution (5 mM) and 20 μl porcine DP II (250fold diluted in buffer solution). Fluorescence measurement was performed at 30° C. and λexiatation=380 nm, λemission=465 nm for 25 min using a plate reader (HTS7000plus, Applied Biosystems, Weiterstadt, Germany).

T2 sequence (A0A5G2QK18 28-502): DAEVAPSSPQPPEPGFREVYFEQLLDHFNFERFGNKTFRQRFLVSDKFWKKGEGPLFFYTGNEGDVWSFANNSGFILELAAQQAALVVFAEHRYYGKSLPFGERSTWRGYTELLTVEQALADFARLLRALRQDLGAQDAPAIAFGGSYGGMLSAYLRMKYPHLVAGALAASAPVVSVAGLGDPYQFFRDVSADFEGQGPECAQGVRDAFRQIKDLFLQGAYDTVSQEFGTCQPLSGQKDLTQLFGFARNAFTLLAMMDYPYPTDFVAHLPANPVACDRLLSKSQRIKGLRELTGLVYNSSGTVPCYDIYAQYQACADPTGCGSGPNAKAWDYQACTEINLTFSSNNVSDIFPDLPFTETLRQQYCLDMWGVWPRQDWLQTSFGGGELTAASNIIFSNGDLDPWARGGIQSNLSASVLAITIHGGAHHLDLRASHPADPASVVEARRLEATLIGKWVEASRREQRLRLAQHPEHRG

IC50 [1]: 340 µM
Ki [2]: 85.2 µM
Compound: NC(=O)CCC(N)C(=O)N1CCCC1 (centres unmarked) [Gln-Pyrr, glutaminyl pyrrolidine]
